Test system: patients with advanced HCC
Assay: Safety: adverse events
Format: in vivo, human
Settings: for ALT increased (AE regardless of study drug relationship) / AST increased (AE regardless of study drug relationship) / Abdominal pain (AE regardless of study drug relationship) / Acute kidney injury (AE regardless of study drug relationship) / Anemia (AE regardless of study drug relationship) / Ascites (AE regardless of study drug relationship) / Blood bilirubin increased (AE regardless of study drug relationship) / Blood creatinine increased (AE regardless of study drug relationship) / Constipation (AE regardless of study drug relationship) / Decreased appetite (AE regardless of study drug relationship) / Diarrhea (AE regardless of study drug relationship) / Fatigue (AE regardless of study drug relationship) / Hyperbilirubinemia (AE regardless of study drug relationship) / Hypoalbuminemia (AE regardless of study drug relationship) / Insomnia (AE regardless of study drug relationship) / Leukopenia (AE regardless of study drug relationship) / Nausea (AE regardless of study drug relationship) / Number of patients with at least one event (AE regardless of study drug relationship) / Peripheral edema (AE regardless of study drug relationship) / Platelet count decreased (AE regardless of study drug relationship) / Pyrexia (AE regardless of study drug relationship) / Vomiting (AE regardless of study drug relationship) / Weight decreased (AE regardless of study drug relationship): patients n (%)
[1] = 300 mg capsule BID n = 9, All grades
[2] = 300 mg capsule BID n = 9, Grades 3/4
[3] = 400 mg tablet BID n = 2, All grades
[4] = 400 mg tablet BID n = 2, Grades 3/4
[5] = 600 mg capsule BID n = 27, All grades
[6] = 600 mg capsule BID n = 27, Grades 3/4
[7] = All patients n = 38, All grades
[8] = All patients n = 38, Grades 3/4
[9] = all patients (n = 38), all grades

With CNC(=O)c1ccc(-c2cnc3ncc(Cc4ccc5ncccc5c4)n3n2)cc1F [capmatinib] the “predefined qualifying adverse events in dose-determining stage” value (300 mg BID capsules, first 28 days of treatment, six evaluable patients) was “No qualifying AEs”, the “ALT increased (AE regardless of study drug relationship)” value (“ALT increased” below) [1] was 0 and the “AST increased (AE regardless of study drug relationship)” value (shortened to “AST increased”) [1] was 1 (11). For the same compound, the “Abdominal pain (AE regardless of study drug relationship)” value (“Abdominal pain” for short) [1] was 2 (22), the “Acute kidney injury (AE regardless of study drug relationship)” value (“Acute kidney injury” for short) [1] was 2 (22) and the “Anemia (AE regardless of study drug relationship)” value (from here on “Anemia”) [1] was 3 (33). For the same compound, the “Ascites (AE regardless of study drug relationship)” value (“Ascites” for short) [1] was 1 (11), the “Blood bilirubin increased (AE regardless of study drug relationship)” value (from here on “Blood bilirubin increased”) [1] was 2 (22) and the “Blood creatinine increased (AE regardless of study drug relationship)” value (“Blood creatinine increased” below) [1] was 3 (33). For the same compound, the “Constipation (AE regardless of study drug relationship)” value (“Constipation” below) [1] was 2 (22), the “Decreased appetite (AE regardless of study drug relationship)” value (from here on “Decreased appetite”) [1] was 3 (33) and the “Diarrhea (AE regardless of study drug relationship)” value [1] was 5 (56). The “Fatigue (AE regardless of study drug relationship)” value (“Fatigue” for short) [1] was 3 (33), the “Hyperbilirubinemia (AE regardless of study drug relationship)” value (from here on “Hyperbilirubinemia”) [1] was 0 and the “Hypoalbuminemia (AE regardless of study drug relationship)” value (“Hypoalbuminemia” for short) [1] was 2 (22). For the same compound, the “Insomnia (AE regardless of study drug relationship)” value (from here on “Insomnia”) [1] was 1 (11), the “Leukopenia (AE regardless of study drug relationship)” value (shortened to “Leukopenia”) [1] was 0 and the “Nausea (AE regardless of study drug relationship)” value [1] was 6 (67). The “Number of patients with at least one event (AE regardless of study drug relationship)” value (from here on “Number of patients”) [1] was 9 (100), the “Peripheral edema (AE regardless of study drug relationship)” value (“Peripheral edema” for short) [1] was 2 (22) and the “Platelet count decreased (AE regardless of study drug relationship)” value (shortened to “Platelet count decreased”) [1] was 0. For the same compound, the “Pyrexia (AE regardless of study drug relationship)” value (“Pyrexia” below) [1] was 1 (11), the “Vomiting (AE regardless of study drug relationship)” value [1] was 4 (44) and the “Weight decreased (AE regardless of study drug relationship)” value (“Weight decreased” for short) [1] was 2 (22). The “ALT increased” value [2] was 0, the “AST increased” value [2] was 1 (11) and the “Abdominal pain” value [2] was 0. The “Acute kidney injury” value [2] was 1 (11), the “Anemia” value [2] was 2 (22) and the “Ascites” value [2] was 0. The “Blood bilirubin increased” value [2] was 1 (11), the “Blood creatinine increased” value [2] was 0 and the “Constipation” value [2] was 0. For the same compound, the “Decreased appetite” value [2] was 0, the “Diarrhea (AE regardless of study drug relationship)” value [2] was 1 (11) and the “Fatigue” value [2] was 0. For the same compound, the “Hyperbilirubinemia” value [2] was 0, the “Hypoalbuminemia” value [2] was 1 (11) and the “Insomnia” value [2] was 0. For the same compound, the “Leukopenia” value [2] was 0, the “Nausea (AE regardless of study drug relationship)” value [2] was 0 and the “Number of patients” value [2] was 5 (56). The “Peripheral edema” value [2] was 0, the “Platelet count decreased” value [2] was 0 and the “Pyrexia” value [2] was 0. For the same compound, the “Vomiting (AE regardless of study drug relationship)” value [2] was 1 (11), the “Weight decreased” value [2] was 0 and the “ALT increased” value [3] was 1 (50). For the same compound, the “AST increased” value [3] was 0, the “Abdominal pain” value [3] was 0 and the “Acute kidney injury” value [3] was 0. For the same compound, the “Anemia” value [3] was 0, the “Ascites” value [3] was 0 and the “Blood bilirubin increased” value [3] was 0. The “Blood creatinine increased” value [3] was 0, the “Constipation” value [3] was 1 (50) and the “Decreased appetite” value [3] was 0. The “Diarrhea (AE regardless of study drug relationship)” value [3] was 0, the “Fatigue” value [3] was 1 (50) and the “Hyperbilirubinemia” value [3] was 0. For the same compound, the “Hypoalbuminemia” value [3] was 0, the “Insomnia” value [3] was 1 (50) and the “Leukopenia” value [3] was 0. For the same compound, the “Nausea (AE regardless of study drug relationship)” value [3] was 1 (50), the “Number of patients” value [3] was 2 (100) and the “Peripheral edema” value [3] was 0. The “Platelet count decreased” value [3] was 0, the “Pyrexia” value [3] was 0 and the “Vomiting (AE regardless of study drug relationship)” value [3] was 1 (50). For the same compound, the “Weight decreased” value [3] was 0, the “ALT increased” value [4] was 1 (50) and the “AST increased” value [4] was 0. For the same compound, the “Abdominal pain” value [4] was 0, the “Acute kidney injury” value [4] was 0 and the “Anemia” value [4] was 0. For the same compound, the “Ascites” value [4] was 0, the “Blood bilirubin increased” value [4] was 0 and the “Blood creatinine increased” value [4] was 0. The “Constipation” value [4] was 0, the “Decreased appetite” value [4] was 0 and the “Diarrhea (AE regardless of study drug relationship)” value [4] was 0. For the same compound, the “Fatigue” value [4] was 0, the “Hyperbilirubinemia” value [4] was 0 and the “Hypoalbuminemia” value [4] was 0. The “Insomnia” value [4] was 0, the “Leukopenia” value [4] was 0 and the “Nausea (AE regardless of study drug relationship)” value [4] was 0. The “Number of patients” value [4] was 1 (50), the “Peripheral edema” value [4] was 0 and the “Platelet count decreased” value [4] was 0. The “Pyrexia” value [4] was 0, the “Vomiting (AE regardless of study drug relationship)” value [4] was 0 and the “Weight decreased” value [4] was 0. The “ALT increased” value [5] was 6 (22), the “AST increased” value [5] was 11 (41) and the “Abdominal pain” value [5] was 3 (11). The “Acute kidney injury” value [5] was 2 (7), the “Anemia” value [5] was 5 (19) and the “Ascites” value [5] was 4 (15). For the same compound, the “Blood bilirubin increased” value [5] was 7 (26), the “Blood creatinine increased” value [5] was 7 (26) and the “Constipation” value [5] was 6 (22). The “Decreased appetite” value [5] was 9 (33), the “Diarrhea (AE regardless of study drug relationship)” value [5] was 8 (30) and the “Fatigue” value [5] was 6 (22). The “Hyperbilirubinemia” value [5] was 4 (15), the “Hypoalbuminemia” value [5] was 6 (22) and the “Insomnia” value [5] was 5 (19). The “Leukopenia” value [5] was 4 (15), the “Nausea (AE regardless of study drug relationship)” value [5] was 9 (33) and the “Number of patients” value [5] was 27 (100). The “Peripheral edema” value [5] was 4 (15), the “Platelet count decreased” value [5] was 4 (15) and the “Pyrexia” value [5] was 5 (19). For the same compound, the “Vomiting (AE regardless of study drug relationship)” value [5] was 9 (33), the “Weight decreased” value [5] was 2 (7) and the “ALT increased” value [6] was 1 (4). For the same compound, the “AST increased” value [6] was 8 (30), the “Abdominal pain” value [6] was 1 (4) and the “Acute kidney injury” value [6] was 1 (4). For the same compound, the “Anemia” value [6] was 1 (4), the “Ascites” value [6] was 1 (4) and the “Blood bilirubin increased” value [6] was 5 (19). The “Blood creatinine increased” value [6] was 1 (4), the “Constipation” value [6] was 0 and the “Decreased appetite” value [6] was 1 (4). The “Diarrhea (AE regardless of study drug relationship)” value [6] was 0, the “Fatigue” value [6] was 0 and the “Hyperbilirubinemia” value [6] was 3 (11). For the same compound, the “Hypoalbuminemia” value [6] was 0, the “Insomnia” value [6] was 0 and the “Leukopenia” value [6] was 0. The “Nausea (AE regardless of study drug relationship)” value [6] was 1 (4), the “Number of patients” value [6] was 19 (70) and the “Peripheral edema” value [6] was 0. The “Platelet count decreased” value [6] was 0, the “Pyrexia” value [6] was 0 and the “Vomiting (AE regardless of study drug relationship)” value [6] was 1 (4). The “Weight decreased” value [6] was 0, the “patients with at least 1 dose reduction due to AEs” value (7/38 patients) was 18% and the “ALT increased” value [7] was 7 (18). The “AST increased” value [7] was 12 (32), the “Abdominal pain” value [7] was 5 (13) and the “Acute kidney injury” value [7] was 4 (11). For the same compound, the “Anemia” value [7] was 8 (21), the “Ascites” value [7] was 5 (13) and the “Blood bilirubin increased” value [7] was 9 (24). The “Blood creatinine increased” value [7] was 10 (26), the “Constipation” value [7] was 9 (24) and the “Decreased appetite” value [7] was 12 (32). The “Diarrhea (AE regardless of study drug relationship)” value [7] was 13 (34), the “Fatigue” value [7] was 10 (26) and the “Hyperbilirubinemia” value [7] was 4 (11). For the same compound, the “Hypoalbuminemia” value [7] was 8 (21), the “Insomnia” value [7] was 7 (18) and the “Leukopenia” value [7] was 4 (11). The “Nausea (AE regardless of study drug relationship)” value [7] was 16 (42), the “Number of patients” value [7] was 38 (100) and the “Peripheral edema” value [7] was 6 (16). For the same compound, the “Platelet count decreased” value [7] was 4 (11), the “Pyrexia” value [7] was 6 (16) and the “Vomiting (AE regardless of study drug relationship)” value [7] was 14 (37). For the same compound, the “Weight decreased” value [7] was 4 (11), the “ALT increased” value [8] was 2 (5) and the “AST increased” value [8] was 9 (24). The “Abdominal pain” value [8] was 1 (3), the “Acute kidney injury” value [8] was 2 (5) and the “Anemia” value [8] was 3 (8). For the same compound, the “Ascites” value [8] was 1 (3), the “Blood bilirubin increased” value [8] was 6 (16) and the “Blood creatinine increased” value [8] was 1 (3). For the same compound, the “Constipation” value [8] was 0, the “Decreased appetite” value [8] was 1 (3) and the “Diarrhea (AE regardless of study drug relationship)” value [8] was 1 (3). For the same compound, the “Fatigue” value [8] was 0, the “Hyperbilirubinemia” value [8] was 3 (8) and the “Hypoalbuminemia” value [8] was 1 (3). The “Insomnia” value [8] was 0, the “Leukopenia” value [8] was 0 and the “Nausea (AE regardless of study drug relationship)” value [8] was 1 (3). For the same compound, the “Number of patients” value [8] was 25 (66), the “Peripheral edema” value [8] was 0 and the “Platelet count decreased” value [8] was 0. The “Pyrexia” value [8] was 0, the “Vomiting (AE regardless of study drug relationship)” value [8] was 2 (5) and the “Weight decreased” value [8] was 0. The “diarrhea, AE regardless of causality” value [9] was 34%, the “nausea, AE regardless of causality” value [9] was 42% and the “vomiting, AE regardless of causality” value [9] was 37%. The “patients with AEs that led to discontinuation of capmatinib” value (all patients (n = 38), nine patients) was 24% and the tolerability (single agent, 600 mg BID capsules and 400 mg BID tablets) was “tolerable with a manageable safety profile”.

Reference: paper PMC6906348 (Therapeutic Advances in Medical Oncology, 2019)
